For this assay, the system named is HIV. Description: HIV MT4 Assay (antiviral HIV activity in MT-4 cells). Format: cell-based. On the procedure: Antiviral HIV activity and cytotoxicity values for compounds of the invention from Table 1 were measured in parallel in the HTLV-1 transformed cell line MT-4 based on the method previously described (Hazen et al., 2007, In vitro antiviral activity of the novel, tyrosyl-based human immunodeficiency virus (HIV) type 1 protease inhibitor brecanavir (GW640385) in combination with other antiretrovirals and against a panel of protease inhibitor-resistant HIV (Hazen et al., “In vitro antiviral activity of the novel, tyrosyl-based human immunodeficiency virus (HIV) type 1 protease inhibitor brecanavir (GW640385) in combination with other antiretrovirals and against a panel of protease inhibitor-resistant HIV”, Antimicrob. Agents Chemother. 2007, 51: 3147-3154; and Pauwels et al., “Sensitive and rapid assay on MT-4 cells for the detection of antiviral compounds against the AIDS virus”, (J. of Virological Methods 1987, 16: 171-185).
Luciferase activity was measured 96 hours later by adding a cell titer glo (Promega, Madison, Wis.). Percent inhibition of cell protection data was plotted relative to no compound control. Under the same condition, cytotoxicity of the compounds was determined using cell titer Glo™ (Promega, Madison, Wis.). IC50s were determined from a 10 point dose response curve using 3-4-fold serial dilution for each compound, which spans a concentration range >1000 fold.
These values are plotted against the molar compound concentrations using the standard four parameter logistic equation: y=((Vmax*x^n)/(K^n+x^n))+Y^2
Y^2=minimum y n=slope factor
Vmax=maximum y x=compound concentration [M]

The mark [1] stands for this setting: Human immunodeficiency virus 1, MT4, HTLV-1 transformed cell line MT-4, luciferase activity measured 96 hours later, Table 3, read-out: HIV MT4 Assay IC50.
The mark [2] stands for this setting: MT4, 96 h, read-out: MT4 (IC50).

23 compounds from US9012642B2, “Pyrrolopyridinone compounds and methods for treating HIV” (ViiV Healthcare UK Limited, priority 2011, dated 2015) can be followed below.

As a reminder, the pIC50 is the negative decadic logarithm of the IC50, by convention in mol/L.

pIC50: −log10 of the molar value. Where two headings read alike, the source gives them in different places.

Consider `Cc1c(-c2c(C(OC(C)(C)C)C(=O)O)n(C)c(=O)c3c2ccn3CC2CCCCC2)ccc2c1CCCO2` (stereo not shown) [Example 51, 2-(tert-butoxy)-2-(1-(cyclohexylmethyl)-6-methyl-4-(5-methylchroman-6-yl)-7-oxo-6,7-dihydro-1H-pyrrolo[2,3-c]pyridin-5-yl)acetic acid], for which the pIC50 by setting is: under setting [1], 7.00; under setting [2], 7.00.
As for `Cc1c(-c2c(C(OC(C)(C)C)C(=O)O)n(C)c(=O)c3c2ccn3Cc2ccc([N+](=O)[O-])cc2)ccc2c1CCCO2` (stereo not shown) [Example 47, 2-(tert-butoxy)-2-(6-methyl-4-(5-methylchroman-6-yl)-1-(4-nitrobenzyl)-7-oxo-6,7-dihydro-1H-pyrrolo[2,3-c]pyridin-5-yl)acetic acid], the pIC50 under setting [1] was 7.40 and the pIC50 under setting [2] was 7.40.
Turning to `Cc1c(-c2c(C(OC(C)(C)C)C(=O)O)n(C)c(=O)c3c2ccn3Cc2ccc(F)cc2)ccc2c1CCCO2` (atropisomer, axis not shown; (M)) [Example 41, (S)(M)-2-(tert-butoxy)-2-(1-(4-fluorobenzyl)-6-methyl-4-(5-methylchroman-6-yl)-7-oxo-6,7-dihydro-1H-pyrrolo[2,3-c]pyridin-5-yl)acetic acid], the pIC50 under setting [1] was 8.00 and the negative-log IC50 (pIC50) under setting [2] was 8.00.
`Cc1c(-c2c(C(OC(C)(C)C)C(=O)O)n(C)c(=O)c3c2ccn3Cc2cc(F)ccc2F)ccc2c1CCCO2` (stereo not shown) [Example 48, 2-(tert-butoxy)-2-(1-(2,5-difluorobenzyl)-6-methyl-4-(5-methylchroman-6-yl)-7-oxo-6,7-dihydro-1H-pyrrolo[2,3-c]pyridin-5-yl)acetic acid]: the pIC50 is, setting by setting: under setting [1], 7.52; under setting [2], 7.52.
Turning to `Cc1ccc(-c2c(C(OC(C)(C)C)C(=O)O)n(C)c(=O)c3c2ccn3C)cc1` (stereo not shown) [Example 30, 2-(tert-butoxy)-2-(1,6-dimethyl-7-oxo-4-(p-tolyl)-6,7-dihydro-1H-pyrrolo[2,3-c]pyridin-5-yl)acetic acid], the pIC50 is, setting by setting: under setting [1], 5.96; under setting [2], 5.96.
For `Cc1ccc(-c2c(C(OC(C)(C)C)C(=O)O)n(C)c(=O)c3c2ccn3-c2ccc(F)cc2)cc1` (stereo not shown) [Example 34, 2-(tert-butoxy)-2-(1-(4-fluorophenyl)-6-methyl-7-oxo-4-(p-tolyl)-6,7-dihydro-1H-pyrrolo[2,3-c]pyridin-5-yl)acetic acid], the pIC50 by setting is: under setting [1], 6.11; under setting [2], 6.11.
`Cc1c(-c2c(C(OC(C)(C)C)C(=O)O)n(C)c(=O)c3c2ccn3Cc2ccccn2)ccc2c1CCCO2` (stereo not shown) [Example 42, 2-(tert-butoxy)-2-(6-methyl-4-(5-methylchroman-6-yl)-7-oxo-1-(pyridin-2-ylmethyl)-6,7-dihydro-1H-pyrrolo[2,3-c]pyridin-5-yl)acetic acid]: the pIC50 is, setting by setting: under setting [1], 6.27; under setting [2], 6.27.
As to `Cc1ccc(-c2c(C(OC(C)(C)C)C(=O)O)n(C)c(=O)c3c2ccn3Cc2ccc3c(c2)OCO3)cc1` (stereo not shown) [Example 33, 2-(1-(benzo[d][1,3]dioxol-5-ylmethyl)-6-methyl-7-oxo-4-(p-tolyl)-6,7-dihydro-1H-pyrrolo[2,3-c]pyridin-5-yl)-2-(tert-butoxy)acetic acid], the pIC50 is 6.68 under setting [1] and 6.68 under setting [2].
Take `Cc1ccc(-c2c(C(OC(C)(C)C)C(=O)O)n(C)c(=O)c3c2c2ccccc2n3Cc2ccc(F)cc2)cc1` (stereo not shown) [Example 56, 2-(tert-butoxy)-2-(9-(4-fluorobenzyl)-2-methyl-1-oxo-4-(p-tolyl)-2,9-dihydro-1H-pyrido[3,4-b]indol-3-yl)acetic acid]: the pIC50 under setting [1] was 6.13 and the pIC50 under setting [2] was 6.13.
With `Cc1ccc(Cn2ccc3c(-c4ccc5c(c4C)CCCO5)c(C(OC(C)(C)C)C(=O)O)n(C)c(=O)c32)cc1F` (stereo not shown) [Example 49, 2-(tert-butoxy)-2-(1-(3-fluoro-4-methylbenzyl)-6-methyl-4-(5-methylchroman-6-yl)-7-oxo-6,7-dihydro-1H-pyrrolo[2,3-c]pyridin-5-yl)acetic acid], the pIC50 is 7.40 under setting [1] and 7.40 under setting [2].
As to `COc1ccc(Cn2ccc3c(-c4ccc(C)cc4)c(C(OC(C)(C)C)C(=O)O)n(C)c(=O)c32)cc1` (stereo not shown) [Example 29, 2-(tert-butoxy)-2-(1-(4-methoxybenzyl)-6-methyl-7-oxo-4-(p-tolyl)-6,7-dihydro-1H-pyrrolo[2,3-c]pyridin-5-yl)acetic acid], the pIC50 was 6.77 under setting [1] and 6.77 under setting [2].
Regarding `Cc1ccc(-c2c(C(OC(C)(C)C)C(=O)O)n(C)c(=O)c3c2ccn3Cc2ccc(B(O)O)cc2)cc1` (stereo not shown) [Example 21, 2-(1-(4-boronobenzyl)-6-methyl-7-oxo-4-(p-tolyl)-6,7-dihydro-1H-pyrrolo[2,3-c]pyridin-5-yl)-2-(tert-butoxy)acetic acid], the pIC50 is, setting by setting: under setting [1], 5.57; under setting [2], 5.57.
`Cc1ccc(-c2c(C(OC(C)(C)C)C(=O)O)n(C)c(=O)c3c2c2c(n3Cc3ccc(F)cc3)CCOC2)cc1` (stereo not shown) [Example 58, 2-(tert-butoxy)-2-(5-(4-fluorobenzyl)-7-methyl-6-oxo-9-(p-tolyl)-1,3,4,5,6,7-hexahydropyrano[3′,4′:4,5]pyrrolo[2,3-c]pyridin-8-yl)acetic acid]: the pIC50 by setting is: under setting [1], 6.12; under setting [2], 6.12.
Take `Cc1ccc(-c2c(C(OC(C)(C)C)C(=O)O)n(C)c(=O)c3c2c2c(n3Cc3ccc(F)cc3)CCCC2)cc1` (stereo not shown) [Example 59, 2-(tert-butoxy)-2-(9-(4-fluorobenzyl)-2-methyl-1-oxo-4-(p-tolyl)-2,5,6,7,8,9-hexahydro-1H-pyrido[3,4-b]indol-3-yl)acetic acid]: the pIC50 reads like this: under setting [1], 6.55; under setting [2], 6.55.
On to `Cc1c(-c2c(C(OC(C)(C)C)C(=O)O)n(C)c(=O)c3c2cnn3Cc2ccccn2)ccc2c1CCCO2` (stereo not shown) [Example 66, 2-(tert-Butoxy)-2-(6-methyl-4-(5-methylchroman-6-yl)-7-oxo-1-(pyridin-2-ylmethyl)-6,7-dihydro-1H-pyrazolo[3,4-c]pyridin-5-yl)acetic acid], for which the pIC50 by setting is: under setting [1], 5.87; under setting [2], 5.87.
Consider `Cc1c(-c2c(C(OC(C)(C)C)C(=O)O)n(C)c(=O)c3c2ccn3Cc2ccccc2)ccc2c1CCCO2` (stereo not shown) [Example 38, 2-(1-benzyl-6-methyl-4-(5-methylchroman-6-yl)-7-oxo-6,7-dihydro-1H-pyrrolo[2,3-c]pyridin-5-yl)-2-(tert-butoxy)acetic acid], for which the pIC50 reads like this: under setting [1], 7.15; under setting [2], 7.15.
As for `Cc1ccc(-c2c(C(OC(C)(C)C)C(=O)O)n(C)c(=O)c3c2ccn3CC(=O)Nc2ccc(F)cc2)cc1` (stereo not shown) [Example 35, 2-(tert-butoxy)-2-(1-(2-((4-fluorophenyl)amino)-2-oxoethyl)-6-methyl-7-oxo-4-(p-tolyl)-6,7-dihydro-1H-pyrrolo[2,3-c]pyridin-5-yl)acetic acid], the pIC50 under setting [1] is 6.00 and the pIC50 under setting [2] is 6.00.
Take `Cc1ccc(-c2c(C(OC(C)(C)C)C(=O)O)n(C)c(=O)c3c2ccn3Cc2ccc(F)c(F)c2)cc1` (stereo not shown) [Example 28, 2-(tert-butoxy)-2-(1-(3,4-difluorobenzyl)-6-methyl-7-oxo-4-(p-tolyl)-6,7-dihydro-1H-pyrrolo[2,3-c]pyridin-5-yl)acetic acid]: the pIC50 reads like this: under setting [1], 7.10; under setting [2], 7.10.
As to `Cn1c(C(OC(C)(C)C)C(=O)O)c(-c2ccc(Cl)cc2)c2ccn(Cc3cn(CCO)nn3)c2c1=O` (stereo not shown) [Example 18, 2-(tert-butoxy)-2-(4-(4-chlorophenyl)-1-((1-(2-hydroxyethyl)-1H-1,2,3-triazol-4-yl)methyl)-6-methyl-7-oxo-6,7-dihydro-1H-pyrrolo[2,3-c]pyridin-5-yl)acetic acid], the negative logarithm of the IC50 (pIC50) under setting [1] was 4.30 and the pIC50 under setting [2] was 4.30.
Consider `Cn1c(C(OC(C)(C)C)C(=O)O)c(-c2ccc(F)cc2)c2ccn(Cc3ccc(F)cc3)c2c1=O` (stereo not shown) [Example 37, 2-(tert-butoxy)-2-(1-(4-fluorobenzyl)-4-(4-fluorophenyl)-6-methyl-7-oxo-6,7-dihydro-1H-pyrrolo[2,3-c]pyridin-5-yl)acetic acid], for which the pIC50 is 6.17 under setting [1] and 6.17 under setting [2].
In the case of `COCCn1ccc2c(-c3ccc4c(c3C)CCCO4)c(C(OC(C)(C)C)C(=O)O)n(C)c(=O)c21` (stereo not shown) [Example 43, 2-(tert-butoxy)-2-(1-(2-methoxyethyl)-6-methyl-4-(5-methylchroman-6-yl)-7-oxo-6,7-dihydro-1H-pyrrolo[2,3-c]pyridin-5-yl)acetic acid], the pIC50 by setting is: under setting [1], 5.96; under setting [2], 5.96.
Turning to `CC(c1ccccc1)n1ccc2c(-c3ccc(Cl)cc3)c(C(OC(C)(C)C)C(=O)O)n(C)c(=O)c21` (stereo not shown) [Example 13, 2-(tert-butoxy)-2-(4-(4-chlorophenyl)-6-methyl-7-oxo-1-(1-phenylethyl)-6,7-dihydro-1H-pyrrolo[2,3-c]pyridin-5-yl)acetic acid], the pIC50 reads like this: under setting [1], 6.40; under setting [2], 6.40.
Take `Cn1c(C(OC(C)(C)C)C(=O)O)c(-c2ccc(Cl)cc2)c2ccn(Cc3ccc(C(F)(F)F)o3)c2c1=O` (stereo not shown) [Example 9, 2-(tert-butoxy)-2-(4-(4-chlorophenyl)-6-methyl-7-oxo-1-((5-(trifluoromethyl)furan-2-yl)methyl)-6,7-dihydro-1H-pyrrolo[2,3-c]pyridin-5-yl)acetic acid]: the pIC50 is, setting by setting: under setting [1], 5.90; under setting [2], 5.90.
